Source: US20160031855A1, “PROTEIN KINASE INHIBITORS” (ORION CORPORATION, priority 2013, published 2016)
Structures can show the parent of a compound that is named as a salt.

Target: T1, FGFR1 kinase (Homo sapiens, UniProt P11362)
T1 construct: purchased Upstate, USA
Assay: TR-FRET assay with FGFR1 kinase
Type: biochemical
Conditions: 13 μM ATP; for IC50: dose response, read-out: IC50 of FGFR1 inhibition; for inhibition at 1 µM / Inhibition (%) of FGFR1 at 1000 nM: compound at 1000 nM
Method: 1. Inhibition of FGFR1 kinase
Compounds were screened in the TR-FRET assay with FGFR1 kinase. 5 ng of FGFR1 [Upstate, USA] kinase was used for assay. The compound was incubated with the kinase for 30 minutes at room temperature. After the incubation, substrate mix [40 nM Ultra light poly GT (Perkin Elmer, USA) and 13 μM ATP (Sigma)] was added. The above reaction was stopped by the addition of 40 mM EDTA after the 30 min kinase reaction. The Eu-labelled antiphospho-tyrosine antibody [Perkin Elmer, USA] was added at 0.5 nM and the fluorescence emission at 615 nm/665 nm [excitation at 340 nm] was measured. The compounds were initially screened at 100 nM and 1 μM concentrations. The compounds with >50% inhibition at 100 nM of FGFR1 were taken for the full dose response studies. The final DMSO concentration in the assay was 1%. For IC50 determination, ⅓^rd serial dilution was made from the 20 mM DMSO stock solution. 2 μl of these were transferred to the test wells containing […] of the reaction mixture [total reaction volume 20 μl]. The fluorescence was measured in Perkin Elmer Wallac 1420 Multilabel Counter Victor 3. The IC50 was determined by fitting the dose response data to sigmoidal curve fitting equation using GraphPad Prism software V5.

T1 sequence (P11362 22-822): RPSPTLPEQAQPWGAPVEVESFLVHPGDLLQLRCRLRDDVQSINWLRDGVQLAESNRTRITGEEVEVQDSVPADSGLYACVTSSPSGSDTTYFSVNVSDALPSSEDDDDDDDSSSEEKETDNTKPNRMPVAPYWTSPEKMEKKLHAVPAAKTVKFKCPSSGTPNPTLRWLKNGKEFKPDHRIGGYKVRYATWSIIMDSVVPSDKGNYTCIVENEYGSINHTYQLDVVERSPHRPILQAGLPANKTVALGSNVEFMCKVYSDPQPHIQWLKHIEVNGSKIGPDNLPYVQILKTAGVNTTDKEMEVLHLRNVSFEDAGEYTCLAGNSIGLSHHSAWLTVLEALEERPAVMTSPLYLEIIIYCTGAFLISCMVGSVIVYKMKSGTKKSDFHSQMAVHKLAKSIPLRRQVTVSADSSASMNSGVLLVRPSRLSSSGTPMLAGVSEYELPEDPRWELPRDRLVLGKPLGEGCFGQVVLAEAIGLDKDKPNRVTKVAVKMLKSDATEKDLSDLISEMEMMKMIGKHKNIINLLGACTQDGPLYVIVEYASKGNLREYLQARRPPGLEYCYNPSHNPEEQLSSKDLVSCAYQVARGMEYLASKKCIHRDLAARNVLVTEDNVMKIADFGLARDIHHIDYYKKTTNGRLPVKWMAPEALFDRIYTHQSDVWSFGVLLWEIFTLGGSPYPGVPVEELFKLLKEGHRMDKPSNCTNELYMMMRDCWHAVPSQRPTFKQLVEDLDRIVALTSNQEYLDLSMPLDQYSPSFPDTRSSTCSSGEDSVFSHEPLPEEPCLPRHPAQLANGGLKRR

IC50 [nM] | inhibition at 1 µM [%] | Inhibition (%) of FGFR1 at 1000 nM [%] | Structure (SMILES)
1.6 | 99 |  | O=S(=O)(Nc1cc(-c2ccc(F)cc2F)cc(-n2cnc3cc(-c4cnn(C5CCNC5)c4)ccc32)n1)C1CC1 (centres unmarked) [Example 34, N-(4-(2,4-difluorophenyl)-6-(5-(1-(pyrrolidin-3-yl)-1H-pyrazol-4-yl)-1H-benzo[d]imidazol-1-yl)pyridin-2-yl)cyclopropanesulfonamide]
1.7 | 99 |  | CC(C)S(=O)(=O)Nc1cc(-c2ccc(F)cc2F)cc(-n2cnc3cc(-c4cnn(C)c4)ccc32)n1 [Example 6, N-(4-(2,4-difluorophenyl)-6-(5-(1-methyl-1H-pyrazol-4-yl)-1H-benzo[d]-imidazol-1-yl)pyridin-2-yl)propane-2-sulfonamide]
21.7 | 99 |  | O=S(=O)(Nc1cc(-c2ccc(F)cc2F)cc(-n2cnc3cc(-n4ccnc4)ccc32)n1)C1CC1 [Example 32, N-(6-(5-(1H-imidazol-1-yl)-1H-benzo[d]imidazol-1-yl)-4-(2,4-difluorophenyl)-pyridin-2-yl)cyclopropanesulfonamide]
294 | 81 |  | CCOC(=O)c1cn(-c2ccc3c(c2)ncn3-c2cc(-c3ccc(F)cc3F)cc(NS(=O)(=O)C3CC3)n2)nn1 [Example 39, Ethyl 1-(1-(6-(cyclopropanesulfonamido)-4-(2,4-difluorophenyl)pyridin-2-yl)-1H-benzo[d]imidazol-5-yl)-1H-1,2,3-triazole-4-carboxylate]
9.2 | 97 |  | Cn1cc(-c2ccc3c(c2)ncn3-c2cc(-c3ccccc3F)nc(NS(=O)(=O)C3CC3)n2)cn1 [Example 22, N-(4-(2-fluorophenyl)-6-(5-(1-methyl-1H-pyrazol-4-yl)-1H-benzo[d]imidazol-1-yl)pyrimidin-2-yl)cyclopropanesulfonamide]
5.2 |  | 99 | CC(C)S(=O)(=O)Nc1cc(-c2ccccc2F)cc(-n2cnc3cc(-c4cnn(C)c4)ccc32)n1 [Example 12 (imido), Sodium salt of imido form of N-(4-(2-fluorophenyl)-6-(5-(1-methyl-1H-pyrazol-4-yl)-1H-benzo[d]imidazol-1-yl)pyridin-2-yl)propane-2-sulfonamide]
14.4 | 98 |  | Cn1cc(-c2ccc3c(c2)ncn3-c2cc(-c3ccc(F)cc3)cc(NS(=O)(=O)C3CC3)n2)cn1 [Example 14]
3.4 | 97 |  | Cn1cc(-c2ccc3c(c2)ncn3-c2cc(-c3ccc(F)cc3)cc(NS(C)(=O)=O)n2)cn1 [Example 16, N-(4-(4-fluorophenyl)-6-(5-(1-methyl-1H-pyrazol-4-yl)-1H-benzo[d]imidazol-1-yl)pyridin-2-yl)methanesulfonamide]
21.9 | 94 |  | CC(=O)Nc1cc(-c2ncc(F)cc2F)cc(-n2cnc3cc(-c4cnn(C)c4)ccc32)n1 [Example 26, N-(3,5-difluoro-6′-(5-(1-methyl-1H-pyrazol-4-yl)-1H-benzo[d]imidazol-1-yl)-[2,4′-bipyridin]-2′-yl)acetamide]
10 | 97 |  | O=S(=O)(Nc1cc(-c2ccc(F)cc2F)cc(-n2cnc3cc(-n4cccn4)ccc32)n1)C1CC1 [Example 23, N-(6-(5-(1H-pyrazol-1-yl)-1H-benzo[d]imidazol-1-yl)-4-(2,4-difluorophenyl)-pyridin-2-yl)cyclopropanesulfonamide]
7.2 | 97 |  | Cn1cc(-c2ccc3c(c2)ncn3-c2cc(-c3ccccc3Cl)cc(NS(=O)(=O)C3CC3)n2)cn1 [Example 28, N-(4-(2-chlorophenyl)-6-(5-(1-methyl-1H-pyrazol-4-yl)-1H-benzo[d]imidazol-1-yl)pyridin-2-yl)cyclopropanesulfonamide]
3.3 |  | 97 | Cn1cc(-c2ccc3c(c2)ncn3-c2cc(-c3ccccc3F)cc(NS(=O)(=O)C3CC3)n2)cn1 [Example 8 (imido), Sodium salt of imido form of N-(4-(2-fluorophenyl)-6-(5-(1-methyl-1H-pyrazol-4-yl)-1H-benzo[d]imidazol-1-yl)pyridin-2-yl)cyclopropanesulfonamide]
3.9 | 99 |  | Cn1cc(-c2ccc3c(c2)ncn3-c2cc(-c3ccc(F)cc3F)cc(NS(=O)(=O)C3CC3)n2)cn1 [Example 2, N-(4-(2,4-difluorophenyl)-6-(5-(1-methyl-1H-pyrazol-4-yl)-1H-benzo[d]-imidazol-1-yl)pyridin-2-yl)cyclopropanesulfonamide]
3.2 |  | 98 | CCS(=O)(=O)Nc1cc(-c2ccccc2F)cc(-n2cnc3cc(-c4cnn(C)c4)ccc32)n1 [Example 11 (imido), Sodium salt of imido form of N-(4-(2-fluorophenyl)-6-(5-(1-methyl-1H-pyrazol-4-yl)-1H-benzo[d]imidazol-1-yl)pyridin-2-yl)ethanesulfonamide]
3.3 |  | 97 | Cn1cc(-c2ccc3c(c2)ncn3-c2cc(-c3ccc(F)cc3F)cc(NS(=O)(=O)C3CC3)n2)cn1 [Example 2 (imido), Sodium salt of imido form of N-(4-(2,4-difluorophenyl)-6-(5-(1-methyl-1H-pyrazol-4-yl)-1H-benzo[d]imidazol-1-yl)pyridin-2-yl)cyclopropanesulfonamide]
3.7 | 99 |  | CN(C)CCn1cc(-c2ccc3c(c2)ncn3-c2cc(-c3ccc(F)cc3F)cc(NS(=O)(=O)C3CC3)n2)cn1 [Example 21, N-(4-(2,4-difluorophenyl)-6-(5-(1-(2-(dimethylamino)ethyl)-1H-pyrazol-4-yl)-1H-benzo[d]imidazol-1-yl)pyridin-2-yl)cyclopropanesulfonamide]
5 |  | 97 | Cn1cc(-c2ccc3c(c2)ncn3-c2cc(-c3ncccc3F)cc(NS(=O)(=O)C3CC3)n2)cn1 [Example 18, N-(3-fluoro-6′-(5-(1-methyl-1H-pyrazol-4-yl)-1H-benzo[d]imidazol-1-yl)-[2,4′-bipyridin]-2-yl)cyclopropanesulfonamide]
4.4 |  | 98 | CCS(=O)(=O)Nc1cc(-c2ccc(F)cc2F)cc(-n2cnc3cc(-c4cnn(C)c4)ccc32)n1 [Example 5 (imido), Sodium salt of imido form of N-(4-(2,4-difluorophenyl)-6-(5-(1-methyl-1H-pyrazol-4yl)-1H-benzo[d]imidazol-1-yl)pyridin-2-yl)ethanesulfonamide]
28.5 | 96 |  | CC(=O)Nc1cc(-c2ncccc2F)cc(-n2cnc3cc(-c4cnn(C)c4)ccc32)n1 [Example 19, N-(3-fluoro-6′-(5-(1-methyl-1H-pyrazol-4-yl)-1H-benzo[d]imidazol-1-yl)-[2,4′-bipyridin]-2′-yl)acetamide]
3.1 | 97 |  | Cn1cc(-c2ccc3c(c2)ncn3-c2cc(-c3ncc(F)cc3F)cc(NS(=O)(=O)C3CC3)n2)cn1 [Example 25, N-(3,5-difluoro-6′-(5-(1-methyl-1H-pyrazol-4-yl)-1H-benzo[d]imidazol-1-yl)-[2,4′-bipyridin]-2′-yl)cyclopropanesulfonamide]
5.2 |  | 97 | CC(C)S(=O)(=O)Nc1cc(-c2ccc(F)cc2)cc(-n2cnc3cc(-c4cnn(C)c4)ccc32)n1 [Example 17 (imido), Sodium salt of imido form: of N-(4-(4-fluorophenyl)-6-(5-(1-methyl-1H-pyrazol-4-yl)-1H-benzo[d]imidazol-1-yl)pyridin-2-yl)propane-2-sulfonamide]
4.6 | 96 |  | CC(C)S(=O)(=O)Nc1cc(-c2ccc(F)cc2)cc(-n2cnc3cc(-c4cnn(C)c4)ccc32)n1 [Example 17, N-(4-(4-fluorophenyl)-6-(5-(1-methyl-1H-pyrazol-4-yl)-1H-benzo[d]imidazol-1-yl)pyridin-2-yl)propane-2-sulfonamide]
12 | 87 |  | CC(=O)Nc1nc(-c2ccc(F)cc2F)cc(-n2cnc3cc(-c4cnn(C)c4)ccc32)n1 [Example 38, N-(4-(2,4-difluorophenyl)-6-(5-(1-methyl-1H-pyrazol-4-yl)-1H-benzo[d]-imidazol-1-yl)pyrimidin-2-yl)acetamide]
16.5 | 97 |  | Cn1cc(-c2ccc3c(c2)ncn3-c2cc(-c3ccc(F)cc3F)cc(Nc3ccn(C)n3)n2)cn1 [Example 1, 4-(2,4-Difluorophenyl)-N-(1-methyl-1H-pyrazol-3-yl)-6-(5-(1-methyl-1H-pyrazol-4-yl)-1H-benzo[d]imidazol-1-yl)pyridin-2-amine]
2 | 99 |  | O=S(=O)(Nc1cc(-c2ccc(F)cc2F)cc(-n2cnc3cc(-c4cnn(CCN5CCOCC5)c4)ccc32)n1)C1CC1 [Example 33, N-(4-(2,4-difluorophenyl)-6-(5-(1-(2-morpholinoethyl)-1H-pyrazol-4-yl)-1H-benzo[d]imidazol-1-yl)pyridin-2-yl)cyclopropanesulfonamide]
